What was measured:
[1] = biological target: T1, human PDHK2 (hPDHK2) (Homo sapiens, UniProt Q15119); assay: Inhibitory action of PDHK2 activity in vitro (residual PDH activity after kinase reaction); format: biochemical; conditions: PDH/hPDHK2 complex, PDHK reaction 45 min at room temperature
T1 construct: made in house; host or cells: Escherichia coli BL21(DE3), pET17b vector
Method: (§1) The inhibitory action of PDHK activity was assessed indirectly by measuring the residual PDH activity after kinase reaction in the presence of a test compound.
The recombinant construct was transformed into Escherichia coli (DB5α-TOYOBO). The recombinant clones were identified, and plasmid DNA was isolated and subjected to the DNA sequence analysis. One clone which had the expected nucleic acid sequence was selected for expression work.
For expression of hPDHK2 activity, Escherichia coli strain BL21(DE3) cells (Novagen) were transformed with the pET17b vector containing modified hPDHK2 cDNA. The Escherichia coli were grown to an optical density 0.6 ([…]) at 30° C. Protein expression was induced by the addition of 500 μmol/L isopropyl-β-thiogalactopyranoside. […]
0.05 U/mL PDH and 0.8 μg/mL hPDHK2 were mixed in a buffer (50 mmol/L 3-morpholinopropanesulfonic acid (pH 7.0), 20 mmol/L dipotassium hydrogen phosphate, 60 mmol/L potassium chloride, 2 mmol/L magnesium chloride, 0.4 mmol/L EDTA, and 0.2% Pluronic F-68, 2 mmol/L dithiothreitol), and the mixture was incubated at 4° C. overnight to obtain a PDH/hPDHK2 complex. […] The mixture was incubated at room temperature for 90 min, and the residual PDH activity was measured. The absorbance at 340 nm before and after PDH reaction was measured using a microplate reader to detect NADH produced by the PDH reaction. […]

[2] = Water adsorption and desorption test; format: physicochemical; conditions: for hygroscopicity: conclusion of the water adsorption and desorption test; for hygroscopicity / moisture absorption under relative humidity 95%: without pre-drying
Method: Water adsorption and desorption test was performed using a water equilibrium measuring apparatus (SGA-100, manufactured by VTI).
A water adsorption and desorption test was performed by the following method.
Method 1 (without Pre-Drying):
Form I crystal (about 10 mg) was weighed in a quartz cell, and a weight change ratio was measured when it reached equilibrium at 25° C. and each relative humidity, by using a water equilibrium measuring apparatus (SGA-100, manufactured by VTI).
Test temperature: 25° C. Equilibrating conditions: weight change ratio was not more than 0.03% in 5 min Maximum equilibrating time: 180 min Change of relative humidity: increased from 5% to 95% at 5% intervals, and decreased from 95% to 5% at 5% intervals. Method 2 (with Pre-Drying):
Form I crystal (about 10 mg) was weighed in a quartz cell, dried under a dried nitrogen stream at 60° C., and a weight change ratio was measured when it reached equilibrium at 25° C. and each relative humidity, by using a water equilibrium measuring apparatus (SGA-100, manufactured by VTI).
Test temperature: 25° C. Equilibrating conditions: weight change ratio was not more than 0.03% in 5 min Maximum equilibrating time: 180 min Change of relative humidity: increased from 5% to 95% at 5% intervals, and decreased from 95% to 5% at 5% intervals.
In the water adsorption and desorption test, the measurement was performed under two conditions of “with pre-drying (drying before test)” and “without pre-drying (drying before test)”, wherein humidification and drying were repeated once. […] Therefore, it was assumed that pre-drying completely evaporated crystal water.

[3] = Water adsorption and desorption test; format: physicochemical; conditions: for weight decrease on pre-drying: pre-dried under a dried nitrogen stream, 60° C.; for weight increase by humidification after drying: with pre-drying, humidification up to relative humidity 10%, 25° C.
[4] = biological target: T2, human PDHK1 (hPDHK1) (Homo sapiens, UniProt Q15118); assay: Inhibitory action of PDHK1 activity in vitro (residual PDH activity after kinase reaction); format: biochemical; conditions: PDH/hPDHK1 complex, PDHK reaction 45 min at room temperature
T2 construct: made in house; host or cells: Escherichia coli BL21(DE3), pET17b vector
T2 sequence (Q15118 29-436): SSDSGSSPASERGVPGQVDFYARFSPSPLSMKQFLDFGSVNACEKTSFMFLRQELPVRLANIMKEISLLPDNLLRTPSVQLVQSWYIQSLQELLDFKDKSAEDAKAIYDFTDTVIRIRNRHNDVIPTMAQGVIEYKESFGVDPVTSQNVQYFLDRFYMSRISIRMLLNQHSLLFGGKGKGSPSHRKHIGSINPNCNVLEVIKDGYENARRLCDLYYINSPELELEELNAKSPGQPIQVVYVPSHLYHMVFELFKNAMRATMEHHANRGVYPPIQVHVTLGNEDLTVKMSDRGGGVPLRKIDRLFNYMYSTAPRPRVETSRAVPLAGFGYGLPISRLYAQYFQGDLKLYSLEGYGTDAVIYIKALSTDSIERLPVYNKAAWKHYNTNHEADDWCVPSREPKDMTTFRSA
Method: as §1
In the case of human PDHK1 (hPDHK1, Genbank Accession No. L42450.1), a 1.3 kbp fragment encoding this protein was isolated from human liver cDNA by polymerase chain reaction (PCR). Modified hPDHK1 cDNA wherein FLAG-Tag sequence was added to the N terminus was prepared by PCR and cloned into a vector (pET17b-Novagen). The recombinant construct was transformed into Escherichia coli (DH5α-TOYOB0). The recombinant clones were identified, and plasmid DNA was isolated and subjected to the DNA sequence analysis. One clone which had the expected nucleic acid sequence was selected for expression work. […]
Then, 10 μL of substrates (5 mmol/L sodium pyruvate, 5 mmol/L Coenzyme A, 12 mmol/L NAD, 5 mmol/L thiamin pyrophosphate, diluted with buffer) were added. The mixture was incubated at room temperature for 90 min, and the residual PDH activity was measured.
The absorbance at 340 nm before and after PDH reaction was measured using a microplate reader to detect NADH produced by the PDH reaction. The hPDHK1 inhibition rate (%) of the test compound was calculated from the formula [{(PDH activity of the test compound−PDH activity of control)/PDH activity of blank−PDH activity of control)}×100]. […]

Compound	IC50 [1] [µM]	hygroscopicity [2]	weight decrease on pre-drying ([2]; pre-dried under a dried nitrogen stream, 60° C.) [%]	weight increase by humidification after drying ([2]; with pre-drying, humidification up to relative humidity 50%, 25° C.) [%]	moisture absorption under relative humidity 95% ([2]; 25° C.)	weight decrease on pre-drying [3] [%]	weight increase by humidification after drying [3] [%]	IC50 [4] [µM]
Cc1cc(-c2cnn(C(CO)(CO)CO)c2)c2c(c1)[C@@](O)(C(F)(F)F)c1ccccc1-2 [Form IVb crystal of compound (Bh), 2 hydrate of 2-hydroxymethyl-2-{4-[(9R)-9-hydroxy-2-methyl-9-(trifluoromethyl)-9H-fluoren-4-yl]-pyrazol-1-yl}-propane-1,3-diol]	0.02	does not have hygroscopicity	7.75	7.93	remarkable moisture absorption was not found			
CC(CO)(CO)n1cc(-c2cc(F)cc3c2-c2ccccc2[C@]3(O)C(F)(F)F)cn1 [Form V crystal of compound (Ah), 0.5 hydrate of 2-{4-[(9R)-2-fluoro-9-hydroxy-9-(trifluoromethyl)-9H-fluoren-4-yl]-pyrazol-1-yl}-2-methyl-propane-1,3-diol]		does not have hygroscopicity			remarkable moisture absorption was not found	2.36	2.46	
CC(CO)(CO)n1cc(-c2cc(F)cc3c2-c2ccccc2[C@]3(O)C(F)(F)F)cn1 [Form I crystal of compound (Ah), 0.5 hydrate of 2-{4-[(9R)-2-fluoro-9-hydroxy-9-(trifluoromethyl)-9H-fluoren-4-yl]-pyrazol-1-yl}-2-methyl-propane-1,3-diol]	0.014	does not have hygroscopicity			remarkable moisture absorption was not found	2.15	2.44	0.026

From patent US20140296316A1, “HYDRATE AND CRYSTAL OF FLUORENE COMPOUNDS” (JAPAN TOBACCO INC., priority 2013, published 2014)
